Results: US20250177473A1, “PEPTIDE REGULATORS OF METABOLISM” (Metabico, Inc., priority 2022, published 2025)

System: M67 (Stat1/Stat3) luciferase reporter
Assay: M67 (Stat1/Stat3) luciferase reporter in HepG2 cells
Assay type: cell-based, human
Details: 16 hours; for Stat3 (M67) reporter activity with three PPAR antagonists: GW 6471 + T0070907 + GSK3787 applied together with EPSI 0.05 mg/mL; for effect of co-applied inhibitor/antagonist on EPSI-induced M67 reporter activation: EPSI 0.05 mg/mL + inhibitor (pravastatin 10 μM; SC144; NF 449)
Method: Luciferase reporters used in the study: • M67 luciferase reporter.
The use of Stat1 inhibitor is required to distinguish the effects of Stat1 and Stat3.
HepG2 human hepatocyte carcinoma cell line (HB-8065, ATCC, USA).
HepG2 cells were cultured in a complete DMEM medium containing 15% FBS.
HepG2 cells were electroporated with 10 μg of purified plasmid DNA and 0.1 μg of pRL-CMV Renilla luciferase control reporter vector (Promega, Madison, WI, USA) using the Neon Transfection System (Thermo Fisher Scientific, Waltham, MA, USA) and the following regimens: three 20 ms 1230 V pulses.
Luciferase activity was measured in Luminometer 20/20n (TurnerBioSystems, Sunnwale, USA) using Dual-Luciferase Reporter Assay System (Promega, Madison, USA) following the manufacturer's protocol.
DY 268 (Tocris Cat. No. 5656) • PPAR-alpha: GW 6471 (Tocris, Cat. No. 4618) • PPAR-gamma: T0070907 (Selleck Chemicals, Catalog No. S2871) • PPAR-delta: GSK3787 (Selleck Chemicals, Catalog No. S8025) • LEPR.
HepG2 cells were electroporated with 10 μg of purified plasmid DNA of M67 reporter and 0.1 μg of pRL-CMV Renilla luciferase control reporter vector (Promega, Madison, WI, USA) using the Neon Transfection System (Thermo Fisher Scientific, Waltham, MA, USA) and the following regimens: three 20 ms 1230 V pulses.
Detection of luciferase signals was performed 16 hours after the compounds' application. Luciferase activity was measured in Luminometer 20/20n (TurnerBioSystems, Sunnwale, USA) using Dual-Luciferase Reporter Assay System (Promega, Madison, USA) following the manufacturer's protocol.

**Q.** Which “Stat3 (M67) reporter activity with three PPAR antagonists” value (from here on “Stat3 (M67) reporter activity”) does the source give for `O=C(NCCS(=O)(=O)c1ccc(C(F)(F)F)cn1)c1ccc(Cl)cc1` [GSK3787] here?
**A.** significant induction

**Q.** Which “Stat3 (M67) reporter activity” value does the source give for `CCC(=O)NC[C@H](Cc1ccc(OCCc2nc(-c3ccccc3)oc2C)cc1)N/C(C)=C\C(=O)c1ccc(C(F)(F)F)cc1` [GW 6471] here?
**A.** significant induction

**Q.** For `O=C(Nc1cc(C(=O)Nc2ccc(S(=O)(=O)O)cc2S(=O)(=O)O)cc(C(=O)Nc2ccc(S(=O)(=O)O)cc2S(=O)(=O)O)c1)Nc1cc(C(=O)Nc2ccc(S(=O)(=O)O)cc2S(=O)(=O)O)cc(C(=O)Nc2ccc(S(=O)(=O)O)cc2S(=O)(=O)O)c1` [NF 449], which “effect of co-applied inhibitor/antagonist on EPSI-induced M67 reporter activation” value is on record?
**A.** partially inversed

**Q.** How did the “effect of co-applied inhibitor/antagonist on EPSI-induced M67 reporter activation” value turn out when `O=C(NNc1nc2cc(F)ccc2n2cccc12)c1cnccn1` [SC144] was run?
**A.** partially inversed

**Q.** With `O=C(Nc1ccncc1)c1cc([N+](=O)[O-])ccc1Cl` [T0070907] as the compound, how does the “Stat3 (M67) reporter activity” value read?
**A.** significant induction
